From US4526889A, “Epimeric azahomoerythromycin A derivative, intermediates and method of use” (Pfizer Inc., priority 1984, dated 1985)
In brackets after ≈: the same amount, converted by molar mass. Where two headings read alike, the source gives them in different places.

What was measured:
Assay in all cases: MIC in brain heart infusion (BHI) broth
E. Coli 125 = type: cell-based; conditions: Escherichia coli, BHI broth, read-out: MIC
From the text: (§1) Generally twelve 2 fold dilutions of the test compound are employed, with initial concentration of the test drug being in the range of 50 to 200 mcg./ml. The susceptibility (MIC) of the test organism is accepted as the lowest concentration of compound capable of producing complete inhibition of growth as judged by the naked eye. A comparison of the activity of 4"-epi-9-deoxo-9a-methyl-9a-aza-9a-homoerythromycin A (IV) with that of an erythromycin A control is shown in replicate in the Table I.

E. Coli 129 = type: cell-based; conditions: Escherichia coli, BHI broth, read-out: MIC
From the text: as §1

E. Coli 266 = type: cell-based; conditions: Escherichia coli, BHI broth, read-out: MIC
From the text: as §1

E. Coli 470 = type: cell-based; conditions: Escherichia coli
From the text: as §1

Ent. aerog. 040 = type: cell-based
From the text: as §1

Ent. cloac. 009 = type: cell-based
From the text: as §1

Kleb. oxy. 024 = type: cell-based
From the text: as §1

Kleb. pn. 009 = type: cell-based
From the text: as §1

Kleb. pn. 031 = type: cell-based
From the text: as §1

Neiss. sic. 000 = type: cell-based
From the text: as §1

Past. mult. 001 = type: cell-based
From the text: as §1

Prov. strua. 013 = type: cell-based
From the text: as §1

Serr. mar. 017 = type: cell-based
From the text: as §1

Staph. aur. 005 = type: cell-based; conditions: BHI broth, read-out: MIC
From the text: as §1

Staph. aur. 052 = type: cell-based; conditions: BHI broth, read-out: MIC
From the text: as §1

Staph. aur. 400 = type: cell-based
From the text: as §1

Staph. epi 111 = type: cell-based
From the text: as §1

Strep. faec. 006 = type: cell-based; conditions: BHI broth, read-out: MIC
From the text: as §1

Strep. pneumo. 012 = type: cell-based
From the text: as §1

Strep. pyog. 203 = type: cell-based
From the text: as §1

H. influ. 012 = type: cell-based, Hemophilus influenzae; conditions: Haemophilus influenzae
From the text: as §1

H. influ. 036 = type: cell-based, Hemophilus influenzae; conditions: Haemophilus influenzae
From the text: as §1

H. influ. 038 = type: cell-based, Hemophilus influenzae; conditions: Haemophilus influenzae
From the text: as §1

H. influ. 042 = type: cell-based, Hemophilus influenzae; conditions: Haemophilus influenzae
From the text: as §1

H. influ. 051 = type: cell-based, Hemophilus influenzae; conditions: Haemophilus influenzae
From the text: as §1

H. influ. 073 = type: cell-based, Hemophilus influenzae; conditions: Haemophilus influenzae
From the text: as §1

H. influ. 078 = type: cell-based, Hemophilus influenzae; conditions: Haemophilus influenzae
From the text: as §1

H. influ. 081 = type: cell-based, Hemophilus influenzae; conditions: Haemophilus influenzae
From the text: as §1

CC[C@H]1OC(=O)[C@H](C)[C@@H](O[C@H]2C[C@@](C)(OC)[C@@H](O)[C@H](C)O2)[C@H](C)[C@@H](O[C@@H]2O[C@H](C)C[C@H](N(C)C)[C@H]2O)[C@](C)(O)C[C@@H](C)C(=O)[C@H](C)[C@@H](O)[C@]1(C)O [Erythromycin A]
MIC (E. Coli 125; 24 h, Day 1): > 50 µg/mL | MIC (E. Coli 125; 48 h, Day 2): > 50 µg/mL | MIC (E. Coli 129; 24 h, Day 1): > 50 µg/mL | MIC (E. Coli 129; 48 h, Day 2): > 50 µg/mL | MIC (E. Coli 266; 24 h, Day 1): > 50 µg/mL | MIC (E. Coli 266; 48 h, Day 2): > 50 µg/mL | MIC (E. Coli 470; 24 h): 3.12 µg/mL (≈ 4.25 µM) | MIC (E. Coli 470; 48 h): 3.12 µg/mL (≈ 4.25 µM) | MIC (Ent. aerog. 040; 24 h, Day 1): > 50 µg/mL | MIC (Ent. aerog. 040; 48 h, Day 2): > 50 µg/mL | MIC (Ent. cloac. 009; 24 h, Day 1): > 50 µg/mL | MIC (Ent. cloac. 009; 48 h, Day 2): > 50 µg/mL | MIC (Kleb. oxy. 024; 24 h, Day 1): > 50 µg/mL | MIC (Kleb. oxy. 024; 48 h, Day 2): > 50 µg/mL | MIC (Kleb. pn. 009; 24 h, Day 1): > 50 µg/mL | MIC (Kleb. pn. 009; 48 h, Day 2): > 50 µg/mL | MIC (Kleb. pn. 031; 24 h, Day 1): > 50 µg/mL | MIC (Kleb. pn. 031; 48 h, Day 2): > 50 µg/mL | MIC (Neiss. sic. 000; 24 h): 1.56 µg/mL (≈ 2.13 µM) | MIC (Neiss. sic. 000; 48 h): 3.12 µg/mL (≈ 4.25 µM) | MIC (Past. mult. 001; 24 h): 1.56 µg/mL (≈ 2.13 µM) | MIC (Past. mult. 001; 48 h): 1.56 µg/mL (≈ 2.13 µM) | MIC (Prov. strua. 013; 24 h, Day 1): > 50 µg/mL | MIC (Prov. strua. 013; 48 h, Day 2): > 50 µg/mL | MIC (Serr. mar. 017; 24 h, Day 1): > 50 µg/mL | MIC (Serr. mar. 017; 48 h, Day 2): > 50 µg/mL | MIC (Staph. aur. 005; 24 h, Day 1): 0.05 µg/mL (≈ 0.0681 µM) | MIC (Staph. aur. 005; 48 h, Day 2): 0.05 µg/mL (≈ 0.0681 µM) | MIC (Staph. aur. 052; 24 h, Day 1): 0.1 µg/mL (≈ 0.136 µM) | MIC (Staph. aur. 052; 48 h, Day 2): 0.1 µg/mL (≈ 0.136 µM) | MIC (Staph. aur. 400; 24 h): 3.12 µg/mL (≈ 4.25 µM) | MIC (Staph. aur. 400; 48 h): 6.25 µg/mL (≈ 8.52 µM) | MIC (Staph. epi 111; 24 h, Day 1): 0.05 µg/mL (≈ 0.0681 µM) | MIC (Staph. epi 111; 48 h, Day 2): 0.05 µg/mL (≈ 0.0681 µM) | MIC (Strep. faec. 006; 24 h, Day 1): 0.78 µg/mL (≈ 1.06 µM) | MIC (Strep. faec. 006; 48 h, Day 2): 0.78 µg/mL (≈ 1.06 µM) | MIC (Strep. pneumo. 012; 24 h, Day 1): 0.025 µg/mL (≈ 0.0341 µM) | MIC (Strep. pneumo. 012; 48 h, Day 2): 0.025 µg/mL (≈ 0.0341 µM) | MIC (Strep. pyog. 203; 24 h, Day 1): 0.025 µg/mL (≈ 0.0341 µM) | MIC (Strep. pyog. 203; 48 h, Day 2): 0.025 µg/mL (≈ 0.0341 µM) | MIC (H. influ. 012; 24 h, Day 1): 3.12 µg/mL (≈ 4.25 µM) | MIC (H. influ. 012; 48 h, Day 2): 1.56 µg/mL (≈ 2.13 µM) | MIC (H. influ. 036; 24 h, Day 1): 6.25 µg/mL (≈ 8.52 µM) | MIC (H. influ. 036; 48 h, Day 2): 3.12 µg/mL (≈ 4.25 µM) | MIC (H. influ. 038; 24 h): 6.25 µg/mL (≈ 8.52 µM) | MIC (H. influ. 038; 48 h): 3.12 µg/mL (≈ 4.25 µM) | MIC (H. influ. 042; 24 h, Day 1): 1.56 µg/mL (≈ 2.13 µM) | MIC (H. influ. 042; 48 h, Day 2): 1.56 µg/mL (≈ 2.13 µM) | MIC (H. influ. 051; 24 h): 3.12 µg/mL (≈ 4.25 µM) | MIC (H. influ. 051; 48 h): 3.12 µg/mL (≈ 4.25 µM) | MIC (H. influ. 073; 24 h): 3.12 µg/mL (≈ 4.25 µM) | MIC (H. influ. 073; 48 h): 3.12 µg/mL (≈ 4.25 µM) | MIC (H. influ. 078; 24 h, Day 1): 1.56 µg/mL (≈ 2.13 µM) | MIC (H. influ. 078; 48 h, Day 2): 1.56 µg/mL (≈ 2.13 µM) | MIC (H. influ. 081; 24 h): 3.12 µg/mL (≈ 4.25 µM) | MIC (H. influ. 081; 48 h): 3.12 µg/mL (≈ 4.25 µM)
